In ChEMBL document CHEMBL4680366, “Tumor-Targeted Bivalent Protein Degradation for Application in Cancer Therapy” (ACS Med Chem Lett, 2021):
The source made the active and inactive calls. The calls are words filed in the database; no cut-off is given here.

Legend:
[1] = molecular target: Bromodomain-containing protein 4 (Homo sapiens, UniProt O60885); assay: Binding affinity to recombinant human BRD4 BD1 and BD2 expressed in Escherichia coli BL21 incubated for 2 hrs under shaking condition by HTRF assay
[2] = molecular target: Heat shock protein HSP 90-alpha/Bromodomain-containing protein 4 (Homo sapiens) (UniProt P07900+O60885); assay: Protac activity at HSP90/BRD4 in human MV4-11 cells assessed as degradation of BRD4 at 40 to 1000 nM measured after 24 hrs by flow cytometry relative to control; format: cell-based; settings: dose 40-1000 nM
MV4-11 = assay: Antitumor activity at human MV4-11 cells xenografted in BALB/c mouse assessed as tumor growth inhibition at 25 to 100 mg/kg, ip administered for 3 to 4 weeks; format: functional, organism-based; settings: dose 25-100 mg/kg, time 3-4 weeks

SMILES	IC50 [1]	Activity [2]	TGI (MV4-11)
CCc1cc(-c2nnc(O)n2-c2ccc(CN3CCC(C(=O)N4CCC(CNC(=O)C[C@@H]5N=C(c6ccc(Cl)cc6)c6c(sc(C)c6C)-n6c(C)nnc65)C4)CC3)cc2)c(O)cc1O (stereo not given in full)	< 100 nM		
Cc1sc2c(c1C)C(c1ccc(Cl)cc1)=N[C@@H](CC(=O)N1CCC(CN3CCN(Cc4ccc(-n5c(O)nnc5-c5cc(C(C)C)c(O)cc5O)cc4)CC3)CC1)c1nnc(C)n1-2 [listing 1 of 3 here]		> 50%	Active
Cc1sc2c(c1C)C(c1ccc(Cl)cc1)=N[C@@H](CC(=O)N1CCC(CN3CCN(Cc4ccc(-n5c(O)nnc5-c5cc(C(C)C)c(O)cc5O)cc4)CC3)CC1)c1nnc(C)n1-2 [listing 2 of 3 here]	100 nM		
Cc1sc2c(c1C)C(c1ccc(Cl)cc1)=N[C@@H](CC(=O)NCC(=O)NCC1CCN(C(=O)C3CCN(Cc4ccc(-n5c(O)nnc5-c5cc(C(C)C)c(O)cc5O)cc4)CC3)CC1)c1nnc(C)n1-2	< 100 nM	> 50%	
Cc1sc2c(c1C)C(c1ccc(Cl)cc1)=N[C@@H](CC(=O)NCCOCCN1CCC(Cc3ccc(-n4c(O)nnc4-c4cc(C(C)C)c(O)cc4O)cc3)CC1)c1nnc(C)n1-2	< 100 nM		
CCc1cc(-c2nnc(C(=O)NCC(F)(F)F)n2-c2ccc(CN3CCN(CC4CCN(C(=O)C[C@@H]5N=C(c6ccc(Cl)cc6)c6c(sc(C)c6C)-n6c(C)nnc65)CC4)CC3)cc2)c(O)cc1O	100 nM		Active
Cc1sc2c(c1C)C(c1ccc(Cl)cc1)=N[C@@H](CC(=O)N[C@@H](C)c1ccc(CN3CCC(Cc4ccc(-n5c(O)nnc5-c5cc(C(C)C)c(O)cc5O)cc4)CC3)cc1)c1nnc(C)n1-2	< 100 nM		
Cc1sc2c(c1C)C(c1ccc(Cl)cc1)=N[C@@H](CC(=O)N1CCC(CN3CCN(Cc4ccc(-n5c(O)nnc5-c5cc(C(C)C)c(O)cc5O)cc4)CC3)CC1)c1nnc(C)n1-2 [listing 3 of 3 here]	100 nM		
Cc1sc2c(c1C)C(c1ccc(Cl)cc1)=N[C@@H](CC(=O)N1CCC(CN3CCN(Cc4ccc(-n5c(O)nnc5-c5ccc(O)cc5O)cc4)CC3)CC1)c1nnc(C)n1-2	< 100 nM		
CCc1cc(-c2nnc(O)n2-c2ccc(CN3CCN(CC4CCN(C(=O)C[C@@H]5N=C(c6ccc(Cl)cc6)c6c(sc(C)c6C)-n6c(C)nnc65)CC4)CC3)cc2)c(O)cc1O	100 nM	> 50%	
Cc1sc2c(c1C)C(c1ccc(Cl)cc1)=N[C@@H](CC(=O)N1CCC(CCN3CCC(Cc4ccc(-n5c(O)nnc5-c5cc(C(C)C)c(O)cc5O)cc4)CC3)CC1)c1nnc(C)n1-2	< 100 nM		
